Source: article PMC3040260 (Biochemistry, 2011)
Several values for one entry are separate records, joined by “and”; a condition that tells them apart may be missing. Identical values can stand only once.

How the values were obtained:
PaMTIP [1] = molecular target: T1, PaMTIP (Pseudomonas aeruginosa, UniProt Q9HZK1); assay type: biochemical
PaMTIP [2] = molecular target: T1, PaMTIP; experiment: PaMTIP inhibition assay; assay type: biochemical
[3] = phosphorolysis, 25 °C, 100 mM Hepes pH 7.4, 100 mM phosphate
[4] = initial phase, 1 nM PaMTIP, 2 mM MTI, 25 °C, pH 7.4
[5] = second binding phase after slow-onset, 1 nM PaMTIP, 2 mM MTI, 25 °C, pH 7.4

T1 sequence (Q9HZK1 whole entry): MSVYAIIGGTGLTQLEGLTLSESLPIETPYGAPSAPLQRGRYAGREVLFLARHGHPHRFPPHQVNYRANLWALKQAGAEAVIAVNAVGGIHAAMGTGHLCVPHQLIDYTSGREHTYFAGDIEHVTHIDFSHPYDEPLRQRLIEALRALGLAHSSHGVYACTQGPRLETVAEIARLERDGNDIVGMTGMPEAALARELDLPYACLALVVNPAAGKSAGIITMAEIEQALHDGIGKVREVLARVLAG

Row | Molecule | kcat (PaMTIP [1]; [3]) | Ki (PaMTIP [2]; [4]) | Ki (PaMTIP [2]; [5]) | other results
1 | 5'-methylthioadenosine [MTA] | < 10^−4 s^−1 |  |  | Ki (PaMTIP [2]; competitive inhibitor of MTI, 200 µM MTI): 70000 ± 20000 nM
2 | 5'-methylthioinosine [MTI] | 4.8 s⁻¹ and 4.8 ± 0.2 s⁻¹ |  |  | slow hydrolysis rate (PaMTIP [1]; hydrolysis to hypoxanthine and 5-methylthioribose): 3.8e-05 s⁻¹; Km (PaMTIP [1]; [3]): 2.6 ± 0.4 µM
3 | O=c1[nH]cnc2c([C@@H]3N[C@H](CSc4ccccc4)[C@@H](O)[C@H]3O)c[nH]c12 [PhT-ImmH, 5'-phenylthio-ImmH] |  | 0.66 ± 0.09 nM | 0.035 ± 0.003 nM | slow-onset inhibition (PaMTIP [2]; PaMTIP): induces slow-onset inhibition
4 | CSC[C@H]1N[C@@H](c2c[nH]c3c(=O)[nH]cnc23)[C@H](O)[C@@H]1O [MT-ImmH, 5'-methylthio-ImmH] |  | 0.84 ± 0.05 nM | 0.076 ± 0.005 nM | fold tighter binding than MT-DADMe-ImmH (Ki*) (PaMTIP [2]; PaMTIP): 4 fold
5 | Nc1ncnc2c1ncn2[C@@H]1O[C@H](CO)[C@@H](O)[C@H]1O [adenosine] | 0.0549 s⁻¹ and 0.0549 ± 0.0005 s⁻¹ |  |  | fold decrease of kcat/Km in comparison with MTI (PaMTIP [1]; relative to MTI): 750 fold
6 | O=c1[nH]cnc2c1ncn2[C@@H]1O[C@H](CO)[C@@H](O)[C@H]1O [inosine] | 0.57 s⁻¹ and 0.57 ± 0.04 s⁻¹ |  |  | 
7 | CSC[C@H]1CN(Cc2c[nH]c3c(=O)[nH]cnc23)C[C@@H]1O [MT-DADMe-ImmH, 5'-methylthio-DADMe-ImmH] |  | 0.8 ± 0.1 nM | 0.34 ± 0.02 nM | 
